Test results from US9580430B2, “9H-pyrimido[4,5-B]indoles and related analogs as BET bromodomain inhibitors” (THE REGENTS OF THE UNIVERSITY OF MICHIGAN, priority 2014, dated 2017).

Assays:
[1] = system: MOLM-13; assay: Cell growth inhibition, MOLM-13 leukemia cells (CellTiter-Glo); assay type: cell-based; conditions: Homo sapiens, MOLM-13, 96 h; 4 days; read-out: IC50 (nM) MOLM-13 Cell Line (CellTiter-Glo assay)
Outline: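 MOLM-13 leukemia cells treated with compounds; viability read by CellTiter-Glo luminescence after 10-20 min reagent incubation at room temperature. IC50 derived from luminescent signal.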

[2] = target: T1, recombinant BRD4 BD2 (Homo sapiens, UniProt O60885); assay: Competitive fluorescence-polarization (FP) binding assay, BRD4 BD2; conditions: competitive FP assay; protein 6 nM, probe […]; read-out: IC50 (nM) BRD4 BD2; note: probe 1.5 nM
T1 construct: for recombinant BRD4 BD1 and BRD4 BD2 proteins
Outline: (§1)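 FP competition with FAM-labelled probe (ZBA248 or BRD-1F) against preincubated protein/probe complex; BD1 at 10 nM and BD2 at 6 nM final, in 100 mM potassium phosphate pH 6.5, 0.01% Triton X-100. 30 min, room temperature. IC50 by nonlinear regression; Ki also derived, using probe Kd from protein saturation.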

[3] = target: T2, recombinant BRD4 BD1 (Homo sapiens, UniProt O60885); assay: Competitive fluorescence-polarization (FP) binding assay, BRD4 BD1; conditions: competitive FP assay; protein 10 nM, probe […]; read-out: IC50 (nM) BRD4 BD1; note: probe 1.5 nM
T2 construct: for recombinant BRD4 BD1 and BRD4 BD2 proteins
Outline: as §1

[4] = system: MDA-MB-436; assay: Cell growth inhibition, MDA-MB-436 breast cancer cells (WST-8); assay type: cell-based; conditions: Homo sapiens, MDA-MB-436, 96 h; 4 days; read-out: IC50 (nM) MDA-MB-436 Cell Line (WST assay)
Outline: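 IC50 was computed from WST-8-based cell counting in MDA-MB-436 cells, with absorbance read at 450 nm.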

## CCc1nn(C)cc1Nc1nc(C)nc2[nH]c3cc(-c4c(C)noc4C)c(OC)cc3c12 [Cpd. No. 182, 7-(3,5-dimethylisoxazol-4-yl)-N-(3-ethyl-1-methyl-1H-pyrazol-4-yl)-6-methoxy-2-methyl-9H-pyrimido[4,5-b]indol-4-amine]
[1]
  IC50: 34.8 nM
[2]
  IC50: 23.6 nM
[3]
  IC50: 15.6 nM
[4]
  IC50: 98 nM

## COc1cc2c(cc1-c1c(C)noc1C)[nH]c1ncnc(Nc3nn(C)c4ccccc34)c12 [Cpd. No. 17, 7-(3,5-Dimethylisoxazol-4-yl)-6-methoxy-N-(1-methyl-1H-indazol-3-yl)-9H-pyrimido[4,5-b]indol-4-amine]
[1]
  IC50: 28.4 nM
[2]
  IC50: 82.3 nM
[3]
  IC50: 16.7 nM
[4]
  IC50: 51 nM

## COc1cc2c(cc1-c1c(C)noc1C)[nH]c1nc(C)nc(Nc3nn(C)c4c(F)cccc34)c12 [Cpd. No. 129, 7-(3,5-Dimethylisoxazol-4-yl)-N-(7-fluoro-1-methyl-1H-indazol-3-yl)-6-methoxy-2-methyl-9H-pyrimido[4,5-b]indol-4-amine]
[1]
  IC50: 144 nM
[2]
  IC50: 202 nM
[3]
  IC50: 105 nM
[4]
  IC50: 201 nM

## COc1cc2c(cc1-c1c(C)noc1C)[nH]c1nc(C)nc(Nc3cccc4cnccc34)c12 [Cpd. No. 221, 7-(3,5-dimethylisoxazol-4-yl)-N-(isoquinolin-5-yl)-6-methoxy-2-methyl-9H-pyrimido[4,5-b]indol-4-amine]
[1]
  IC50: 189 nM
[2]
  IC50: 57 nM
[3]
  IC50: 49 nM
[4]
  IC50: 209 nM

## COc1cc2c(cc1-c1c(C)noc1C)[nH]c1nc(C)nc(Sc3nnc(C)n3C(C)C)c12 [Cpd. No. 3, 4-(4-((4-Isopropyl-5-methyl-4H-1,2,4-triazol-3-yl)thio)-6-methoxy-2-methyl-9H-pyrimido[4,5-b]indol-7-yl)-3,5-dimethylisoxazole]
[1]
  IC50: 38.4 nM
[2]
  IC50: 183 nM
[3]
  IC50: 540 nM
[4]
  IC50: 386 nM

## COc1cc2c(cc1-c1c(C)noc1C)[nH]c1nc(C)nc(Nc3cc(C)nn3C3CCCC3)c12 [Cpd. No. 118, N-(1-Cyclopentyl-3-methyl-1H-pyrazol-5-yl)-7-(3,5-dimethylisoxazol-4-yl)-6-methoxy-2-methyl-9H-pyrimido[4,5-b]indol-4-amine]
[1]
  IC50: 17.7 nM
[2]
  IC50: 3.4 nM
[3]
  IC50: 4.2 nM
[4]
  IC50: 25 nM

## COc1cc2c(cc1-c1c(C)noc1C)[nH]c1nc(C)nc(Nc3csc4ncccc34)c12 [Cpd. No. 103, N-(7-(3,5-dimethylisoxazol-4-yl)-6-methoxy-2-methyl-9H-pyrimido[4,5-b]indol-4-yl)thieno[2,3-b]pyridin-3-amine]
[1]
  IC50: 39 nM
[2]
  IC50: 38 nM
[3]
  IC50: 29 nM
[4]
  IC50: 120 nM

## COc1cc2c(cc1-c1c(C)noc1C)[nH]c1nc(C)nc(Nc3cc(C4CC4)nn3C3CC3)c12 [Cpd. No. 152, N-(1,3-Dicyclopropyl-1H-pyrazol-5-yl)-7-(3,5-dimethylisoxazol-4-yl)-6-methoxy-2-methyl-9H-pyrimido[4,5-b]indol-4-amine]
[1]
  IC50: 19 nM
[2]
  IC50: 5.6 nM
[3]
  IC50: 10.6 nM
[4]
  IC50: 34 nM

## COc1cc2c(cc1-c1c(C)noc1C)[nH]c1nc(C)nc(Nc3c(C)nn(C(C)C)c3C)c12 [Cpd. No. 36, 7-(3,5-dimethylisoxazol-4-yl)-N-(1-isopropyl-3,5-dimethyl-1H-pyrazol-4-yl)-6-methoxy-2-methyl-9H-pyrimido[4,5-b]indol-4-amine]
[1]
  IC50: 103 nM
[2]
  IC50: 92.6 nM
[3]
  IC50: 68.5 nM
[4]
  IC50: 236 nM

## CCn1nc(C)c(C)c1Nc1nc(C)nc2[nH]c3cc(-c4c(C)noc4C)c(OC)cc3c12 [Cpd. No. 186, 7-(3,5-dimethylisoxazol-4-yl)-N-(1-ethyl-3,4-dimethyl-1H-pyrazol-5-yl)-6-methoxy-2-methyl-9H-pyrimido[4,5-b]indol-4-amine]
[1]
  IC50: 27.1 nM
[2]
  IC50: 55.1 nM
[3]
  IC50: 33.9 nM
[4]
  IC50: 132 nM

## COc1cc2c(cc1-c1c(C)noc1C)[nH]c1nc(C)nc(Nc3c(C)cnn3C)c12 [Cpd. No. 76, N-(1,4-dimethyl-1H-pyrazol-5-yl)-7-(3,5-dimethylisoxazol-4-yl)-6-methoxy-2-methyl-9H-pyrimido[4,5-b]indol-4-amine]
[1]
  IC50: 117 nM
[2]
  IC50: 23.7 nM
[3]
  IC50: 29.4 nM
[4]
  IC50: 156 nM

## COc1cc2c(cc1-c1c(C)noc1C)[nH]c1nc(C)nc(Nc3cnn(C)c3C)c12 [Cpd. No. 170, N-(1,5-dimethyl-1H-pyrazol-4-yl)-7-(3,5-dimethylisoxazol-4-yl)-6-methoxy-2-methyl-9H-pyrimido[4,5-b]indol-4-amine]
[1]
  IC50: 131 nM
[2]
  IC50: 56.5 nM
[3]
  IC50: 44.9 nM
[4]
  IC50: 222 nM
